# Measured values taken from patent US20200030278A1, “PHARMACEUTICAL COMPOSITIONS OF METAP-2 INHIBITORS” (Zafgen, Inc., priority 2017, published 2020).
# Where two headings read alike, the source gives them in different places.
# Tests used:
# [1] = Pharmacokinetics after intravenous administration in rats; details: in vivo, Rat, IV Bolus, 1 mg/kg
# Description: (§1) Animal experiments were performed in accordance with the Guide for the Care and Use of Laboratory Animals as adopted and promulgated by the U.S. National Institutes of Health or local equivalent and were approved by the Institution's Animal Care and Use Committee or local equivalent. Unless described otherwise, animals (mouse, rat, and dog studies) were maintained under standard conditions (12-hour light/dark cycle and approximately 21±4° C. and 55±15% relative humidity), and food (Rodent pellet chow [Research Diets, Brunswick N.J., or similar] or canine pellet [Certified Dog Diet 2021C, Harlan Teklad Diets, Madison, Wis.] or canned [i.e., Cesar® Mars Petcare, Victoria, Australia]) and water were available ad libitum. Unless described otherwise, drug formulations were administered s.c. daily (efficacy studies) or every 3 days (Q3D; safety studies).
# [2] = Hepatocyte incubation, metabolic profile, dog; assay type: in vitro ADME
# [3] = Toxicology study in the rat, s.c. Q3D for 28 days; assay type: in vivo, Sprague Dawley rats; details: for NOAEL at 28 days / AUC(0-t) / Cmax: Sprague Dawley; for AUC(0-t) / Cmax: 6 mg/kg, NOAEL 6 mg/kg; for AUC(0-t): read-out: AUC0-t at NOAEL
# Description: Male and female Sprague Dawley rats 9-10 weeks of age (Envigo RMS, Inc., Indianapolis, Ind. or Orient Bio Inc., Gyeonggi-do, South Korea) were individually housed at the testing facility. […] Animals were allocated to treatment groups based on body weight, and body weight and food consumption were recorded weekly. […] At necropsy, macroscopic pathologic findings were recorded, sperm motility and morphology were determined, selected organs were weighed, and selected tissues were collected for microscopic examination.
# [4] = Protein binding in dog plasma (dialysis); assay type: in vitro ADME; details: Dog Plasma, read-out: % Bound (converted)
# [5] = Pharmacokinetics after subcutaneous administration in humans; assay type: in vivo, Human
# From the text: (§2) Assessment of differences in pharmacokinetics following subcutaneous administration reflect both differences in the pharmacokinetic properties of the compounds and differences in pharmaceutical factors that affect absorption of the formulations from the injection sites.
# [6] = Duration of plasma exposure after subcutaneous dosing, summary over species; assay type: in vivo, rat, dog, rabbit, human
# [7] = Pharmacokinetics after subcutaneous administration in rabbits; assay type: in vivo, Rabbit
# From the text: as §2
# [8] = pKa (physicochemical properties)
# [9] = Pharmacokinetic study in dogs, single s.c. injection (Example 3); details: both, beagle, dog, plasma, sc, 0.6 mg/kg
# Description: Male and female beagle dogs of 9 to 11 months of age for PK characterization were individually housed at the testing facility Approximately 325 g of pelleted food was provided daily. […] Animals were observed twice daily for signs of ill health, morbidity, mortality, injury, and viability, and detailed clinical observations were conducted daily (including urine/fecal examination and hands-on examination). Food was weighed daily, and body weights were recorded at least weekly.
# Samples were collected in tubes containing lithium heparin and processed for plasma by centrifugation (10 minutes at 3000 rpm). Supernatant was removed and stored frozen (−70° C.) until processed (BASi, West Lafayette, Ind.). Plasma drug concentration data were used to calculate PK parameters for individual concentration data using noncompartmental PK methods in Watson™ version 7.3.0.01 (Thermo Fisher Scientific, Inc., Waltham, Mass.).
# [10] = Pharmacokinetics after intravenous administration in dogs; details: in vivo, Dog, IV Bolus, 1 mg/kg
# Description: as §1
# [11] = tested on: plasma proteins; assay: Plasma protein binding, summary over species; assay type: in vitro ADME; details: species not specified
# [12] = Protein binding in rat plasma (dialysis); assay type: in vitro ADME; details: Rat Plasma, read-out: % Bound (converted)
# [13] = tested on: plasma proteins; assay: Protein binding in rat plasma (dialysis); assay type: in vitro ADME; details: plasma; rat, summary over concentrations; read-out: bound to plasma proteins
# [14] = Protein binding in mouse plasma (dialysis); assay type: in vitro ADME; details: read-out: % Bound (converted)
# [15] = Red blood cell partitioning; assay type: in vitro ADME; details: Compound A compared with beloranib
# [16] = Pharmacokinetics after subcutaneous administration in rats; assay type: in vivo; details: plasma; Rat, SC, 6 mg/kg
# Description: as §1, §2
# [17] = Solubility (pH 7); assay type: physicochemical; details: pH 7, aqueous buffer
# [18] = Protein binding in human plasma (dialysis); assay type: in vitro ADME; details: Human Plasma, read-out: % Bound (converted)
# [19] = tested on: plasma proteins; assay: Protein binding in human plasma (dialysis); assay type: in vitro ADME; details: plasma; human, summary over concentrations; read-out: bound to plasma proteins
# [20] = Hepatocyte incubation, metabolic profile, human; assay type: in vitro ADME
# [21] = Pharmacokinetics after subcutaneous administration in dogs; assay type: in vivo; details: plasma; Dog, SC, 1 mg/kg
# Description: as §1, §2
# [22] = Hepatocyte incubation, metabolic profile, rat; assay type: in vitro ADME
# [23] = logD7.4 (physicochemical properties); details: pH 7.4
# [24] = female, rat, in vivo, sc, Day 1, female rats
# [25] = female, rat, in vivo, sc, Day 28, female rats
# [26] = male, rat, in vivo, sc, Day 28, male rats
smiles,measurement,setting,value
CO[C@@H]1[C@H](OC(=O)N2CC(CCN3CCOCC3)C2)CC[C@]2(CO2)[C@H]1[C@@]1(C)O[C@@H]1CC=C(C)C [Compound A],clearance,[1]; kel and dependent parameters estimated using two time points,252 mL/min/kg
same,half-life,[1]; kel and dependent parameters estimated using two time points (1 and 2 hours),93 ± 62.4 min
same,Vd,"[1]; kel and dependent parameters estimated using two time points, read-out: Vdss",2.11 ± 0.1 L/kg
same,metabolic profile / predominant pathway in hepatocytes,[2],oxidative (CYP-mediated) metabolism being predominant
same,NOAEL at 28 days,"[3]; rat, in vivo, sc, female rats, s.c. Q3D, 4 weeks, read-out: NOAEL (F)",6 mg/kg
same,NOAEL at 28 days,"[3]; rat, in vivo, sc, male rats, s.c. Q3D, 4 weeks, read-out: NOAEL",6 mg/kg
same,AUC(0-t),"[3]; both sexes, rat, in vivo, sc, Day 1, male rats",349 ng·h/mL
same,Cmax,[3]; [24],278 ng/mL
same,AUC(0-t),[3]; [24],262 ng·h/mL
same,Cmax,[3]; [25],412 ng/mL
same,AUC(0-t),[3]; [25],288 ng·h/mL
same,Cmax,"[3]; male, rat, in vivo, sc, Day 1, male rats",351 ng/mL
same,Cmax,[3]; [26],426 ng/mL
same,AUC(0-t),[3]; [26],409 ng·h/mL
same,tolerability of the highest dose,"[3]; rat, in vivo, sc, 25 mg/kg",well tolerated
same,Mortality/early euthanasia,"[3]; rats, s.c. Q3D, 4 weeks",no mortality and None
same,"fraction unbound at 4 h, 5 nM","[4]; intended 5 nM, actual 3.17 nM at end of 4-hour dialysis",0.311
same,"fraction unbound at 4 h, 10 nM","[4]; intended 10 nM, actual 6.05 nM",0.406
same,"fraction unbound at 4 h, 50 nM","[4]; intended 50 nM, actual 32.0 nM",0.326
same,"fraction unbound at 4 h, 100 nM","[4]; intended 100 nM, actual 59.1 nM",0.403
same,"fraction unbound at 4 h, 500 nM","[4]; intended 500 nM, actual 320 nM",0.457
same,"fraction unbound at 4 h, 1000 nM","[4]; intended 1000 nM, actual 527 nM",0.469
same,Cmax,"[5]; Human, SC, 2.4 mg",13.5 ± 2.7 ng/mL
same,Tmax,"[5]; Human, SC, 2.4 mg",15 ± 0 min
same,kel,"[5]; Human, SC, 2.4 mg",1.09 ± 0.34 h⁻¹
same,Vdss,"[5]; Human, SC, 2.4 mg, estimated from subcutaneous dosing",3.78 ± 1.54 L/kg
same,plasma concentration at 8 hours after dosing,"[5]; humans, 2.4 mg subcutaneous dose",not quantifiable
same,AUC(0-inf),"[5]; plasma, Human, SC, 2.4 mg",8.05 ± 1.42 ng·h/mL
same,half-life,"[5]; plasma, Human, SC, 2.4 mg",40.9 ± 11.9 min
same,time for concentrations in plasma to return to baseline,[6]; all species,≤ 8 h
same,interval between doses with plasma concentrations at background / minimal exposure,[6]; dosing once every 3 days in animals and twice a week in humans,approximately 54 hours
same,AUC(0-t),"[7]; plasma, Rabbit, SC, 1 mg/kg",207 ± 45 ng·h/mL
same,Cmax,"[7]; plasma, Rabbit, SC, 1 mg/kg",173 ± 34 ng/mL
same,Tmax,"[7]; plasma, Rabbit, SC, 1 mg/kg",19.8 ± 8.4 min
same,half-life,"[7]; plasma, Rabbit, SC, 1 mg/kg",36.9 ± 10.1 min
same,time after dosing at which plasma concentrations were below the lower limit of quantification,"[7]; rabbit, subcutaneous, last sampling time 8 hours",≤ 4 h
same,pKa,[8],7.17
same,half-life,[9],24 min
same,clearance,[10],45.3 mL/min/kg
same,half-life,[10],39.7 ± 6.06 min
same,Vd,[10]; read-out: Vdss,1.48 ± 0.17 L/kg
same,fraction bound to plasma proteins,[11],0.3 to 0.7
same,"fraction unbound at 4 h, 5 nM","[12]; intended 5 nM, actual 3.64 nM at end of 4-hour dialysis",0.323
same,"fraction unbound at 4 h, 10 nM","[12]; intended 10 nM, actual 7.60 nM",0.29
same,"fraction unbound at 4 h, 50 nM","[12]; intended 50 nM, actual 39.7 nM",0.426
same,"fraction unbound at 4 h, 100 nM","[12]; intended 100 nM, actual 76.0 nM",0.466
same,"fraction unbound at 4 h, 500 nM","[12]; intended 500 nM, actual 370 nM",0.451
same,"fraction unbound at 4 h, 1000 nM","[12]; intended 1000 nM, actual 595 nM",0.566
same,fraction unbound at 4 h,[13],0.3 to 0.6
same,"fraction unbound at 4 h, 5 nM","[14]; intended 5 nM, actual 5.20 nM at end of 4-hour dialysis",0.298
same,"fraction unbound at 4 h, 10 nM","[14]; intended 10 nM, actual 11.1 nM",0.293
same,"fraction unbound at 4 h, 50 nM","[14]; intended 50 nM, actual 56.4 nM",0.302
same,"fraction unbound at 4 h, 100 nM","[14]; intended 100 nM, actual 112 nM",0.333
same,"fraction unbound at 4 h, 500 nM","[14]; intended 500 nM, actual 496 nM",0.377
same,"fraction unbound at 4 h, 1000 nM","[14]; intended 1000 nM, actual 868 nM",0.46
same,red blood cell partitioning,[15],similar
same,AUC(0-t),[16],391 ± 54 ng·h/mL
same,Cmax,[16],323 ± 26 ng/mL
same,Tmax,[16],17.5 ± 5.04 min
same,solubility,[17],> 100 mg/mL
same,"fraction unbound at 4 h, 5 nM","[18]; intended 5 nM, actual 1.49 nM at end of 4-hour dialysis",0.664
same,"fraction unbound at 4 h, 10 nM","[18]; intended 10 nM, actual 3.14 nM",0.681
same,"fraction unbound at 4 h, 50 nM","[18]; intended 50 nM, actual 15.5 nM",0.688
same,"fraction unbound at 4 h, 100 nM","[18]; intended 100 nM, actual 32.7 nM",0.694
same,"fraction unbound at 4 h, 500 nM","[18]; intended 500 nM, actual 165 nM",0.704
same,"fraction unbound at 4 h, 1000 nM","[18]; intended 1000 nM, actual 338 nM",0.748
same,fraction unbound,[19],0.65 to 0.75
same,metabolic profile / predominant pathway in hepatocytes,[20],oxidative (CYP-mediated) metabolism being predominant
same,AUC(0-t),[21],348 ± 42 ng·h/mL
same,Cmax,[21],122 ± 29 ng/mL
same,Tmax,[21],55 ± 10 min
same,half-life,[21],62.4 ± 18 min
same,metabolic profile / predominant pathway in hepatocytes,[22],higher amount of GSH-metabolism than for dog and human hepatocytes
same,logD7.4,[23],2.28
